The text below walks through data of ChEMBL document CHEMBL1136365, “Hepatoprotective pyrrole derivatives of Lycium chinense fruits” (2003).

Holding throughout (assay type): functional, Hepatocyte
The species entered for test [1] is Rattus norvegicus. The experiment in a line: Tested for release of glutamic pyruvic transaminase (GPT) from CCl4 induced toxicity in primary cultures of rat hepatocytes at 1 uM concentration.
The species entered for test [2] is Rattus norvegicus. Briefly: Tested for release of glutamic pyruvic transaminase (GPT) from CCl4 induced toxicity in primary cultures of rat hepatocytes at 10 uM concentration.
Test [3] is filed under the species Rattus norvegicus. The experiment in a line: Tested for release of glutamic pyruvic transaminase (GPT) from CCl4 induced toxicity in primary cultures of rat hepatocytes at 0.01 uM concentration.
The species entered for test [4] is Rattus norvegicus. The experiment in a line: Tested for release of glutamic pyruvic transaminase (GPT) from CCl4 induced toxicity in primary cultures of rat hepatocytes at 0.1 uM concentration.
The species named for test [5] is Rattus norvegicus. The experiment in a line: Tested for release of glutamic pyruvic transaminase (GPT) from CCl4 induced toxicity in primary cultures of rat hepatocytes at 50 uM concentration.

Turning to `O=Cc1ccc(CO)n1CCCC(=O)O`, the Relative protection in the test filed under Rattus norvegicus [1] came out at 39.7%; in the test filed under Rattus norvegicus [2], 3.2%; in the test listed under Rattus norvegicus [3], 12.4%; in the test listed under Rattus norvegicus [4], 64.4%.

With `COC(=O)CCCn1c(C=O)ccc1CO`, the Relative protection in the test listed under Rattus norvegicus [1] stood at 40.8%; in the test filed under Rattus norvegicus [2], 20.8%; in the test listed under Rattus norvegicus [3], 5.1%; in the test listed under Rattus norvegicus [4] it was 30.8%.

Take `COCc1ccc(C=O)n1CCCC(=O)OC`: the Relative protection in the test filed under Rattus norvegicus [1] is 13.2%; in the test filed under Rattus norvegicus [2], 15.9%; in the test filed under Rattus norvegicus [3] it was 8.9%; in the test filed under Rattus norvegicus [4], 38.5%.

As to `COCc1ccc(C=O)n1CCCC(=O)O`, the Relative protection is reported as 29.2% in the test listed under Rattus norvegicus [1], 14.2% in the test listed under Rattus norvegicus [2], 36% in the test filed under Rattus norvegicus [3] and 65.8% in the test filed under Rattus norvegicus [4].

Consider `COc1cc([C@H]2Oc3cc([C@H]4Oc5cc(O)cc(O)c5C(=O)[C@@H]4O)ccc3O[C@@H]2CO)ccc1O` [SILIBININ], for which the Relative protection in the test filed under Rattus norvegicus [5] is reported as 45.5%; in the test filed under Rattus norvegicus [1], 14.6%; in the test listed under Rattus norvegicus [2], 28.8%.
